Measured values: ChEMBL document CHEMBL1201862, “PubChem BioAssay data set” (2004)
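Results reflect a 48-hour exposure of cells in 96-well plates to compound at five concentrations. Abbreviation: GI50, concentration required for 50% inhibition of growth.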 The source made the active and inactive calls. No stated cut-off is given here; in the data, active = GI50 up to about 1.1 µM and inactive = higher.

How the values were obtained:
Experiment in all cases: NCI-60 cell line screen, 48 h
786-0 = system: 786-0
A498 = system: A498
A549 = system: A549
ACHN = system: ACHN
CAKI-1 = system: CAKI-1
CCRF-CEM = system: CCRF-CEM
COLO 205 = system: COLO 205
DLD-1 = system: DLD-1
DMS-114 = system: DMS-114
DMS-273 = system: DMS-273
EKVX = system: EKVX
HCC 2998 = system: HCC 2998
HCT-116 = system: HCT-116
HCT-15 = system: HCT-15
HL-60 = system: HL-60
HOP-18 = system: HOP-18
HOP-62 = system: HOP-62
HOP-92 = system: HOP-92
HT-29 = system: HT-29
IGROV-1 = system: IGROV-1
K562 = system: K562
KM-20L2 = system: KM-20L2
KM12 = system: KM12
LOX IMVI = system: LOX IMVI
LXFL 529 = system: LXFL 529
M14 = system: M14
MOLT-4 = system: MOLT-4
Malme-3M = system: Malme-3M
NCI-H226 = system: NCI-H226
NCI-H23 = system: NCI-H23
NCI-H460 = system: NCI-H460
NCI-H522 = system: NCI-H522
OVCAR-3 = system: OVCAR-3
OVCAR-5 = system: OVCAR-5
OVCAR-8 = system: OVCAR-8
RPMI-8226 = system: RPMI-8226
RXF 393 = system: RXF 393
SF-268 = system: SF-268
SF-295 = system: SF-295
SF-539 = system: SF-539
SK-MEL-28 = system: SK-MEL-28
SK-MEL-2 = system: SK-MEL-2
SK-MEL-5 = system: SK-MEL-5
SK-OV-3 = system: SK-OV-3
SN12C = system: SN12C
SNB-19 = system: SNB-19
SNB-75 = system: SNB-75
SNB-78 = system: SNB-78
SR = system: SR
SW-620 = system: SW-620
TK-10 = system: TK-10
U-251 = system: U-251
UACC-257 = system: UACC-257
UACC-62 = system: UACC-62
UO-31 = system: UO-31
XF498 = system: XF498
M19-MEL = system: M19-MEL
OVCAR-4 = system: OVCAR-4

## N#CC1=C(Cl)NC(Cl)=C(C#N)C1c1c(Cl)cccc1Cl
786-0
  GI50: 25.1 µM (inactive)
A498
  GI50: 94.6 µM (inactive)
A549
  GI50: 29.1 µM (inactive)
ACHN
  GI50: 39.1 µM (inactive)
CAKI-1
  GI50: 55.6 µM (inactive)
CCRF-CEM
  GI50: 24.4 µM (inactive)
COLO 205
  GI50: 17.5 µM (inactive)
DLD-1
  GI50: 21.4 µM (inactive)
DMS-114
  GI50: 14.2 µM (inactive)
DMS-273
  GI50: 19.6 µM (inactive)
EKVX
  GI50: 49.8 µM (inactive)
HCC 2998
  GI50: 24.1 µM (inactive)
HCT-116
  GI50: 18.7 µM (inactive)
HCT-15
  GI50: 16.2 µM
HL-60
  GI50: 19.6 µM (inactive)
HOP-18
  GI50: 30.1 µM (inactive)
HOP-62
  GI50: 48.2 µM (inactive)
HOP-92
  GI50: 21.4 µM (inactive)
HT-29
  GI50: 31.4 µM (inactive)
IGROV-1
  GI50: 37.9 µM (inactive)
K562
  GI50: 19 µM (inactive)
KM-20L2
  GI50: 45.8 µM (inactive)
KM12
  GI50: 21.8 µM (inactive)
LOX IMVI
  GI50: 17.3 µM (inactive)
LXFL 529
  GI50: 30.8 µM (inactive)
M14
  GI50: 38.8 µM (inactive)
MOLT-4
  GI50: 32.5 µM (inactive)
Malme-3M
  GI50: 46 µM (inactive)
NCI-H226
  GI50: > 100 µM (inactive)
NCI-H23
  GI50: 35.9 µM (inactive)
NCI-H460
  GI50: 18.4 µM (inactive)
NCI-H522
  GI50: 17.2 µM (inactive)
OVCAR-3
  GI50: 25.1 µM (inactive)
OVCAR-5
  GI50: > 100 µM (inactive)
OVCAR-8
  GI50: 26.1 µM (inactive)
RPMI-8226
  GI50: 22.5 µM (inactive)
RXF 393
  GI50: 22.6 µM (inactive)
SF-268
  GI50: 30.4 µM (inactive)
SF-295
  GI50: 41.7 µM (inactive)
SF-539
  GI50: 46 µM (inactive)
SK-MEL-28
  GI50: 35.2 µM (inactive)
SK-MEL-2
  GI50: 58.3 µM (inactive)
SK-MEL-5
  GI50: 21.5 µM (inactive)
SK-OV-3
  GI50: 29.7 µM (inactive)
SN12C
  GI50: 24.7 µM (inactive)
SNB-19
  GI50: 27.9 µM (inactive)
SNB-75
  GI50: 34.4 µM (inactive)
SNB-78
  GI50: 92.7 µM (inactive)
SR
  GI50: 40.7 µM (inactive)
SW-620
  GI50: 14 µM (inactive)
TK-10
  GI50: 36.5 µM (inactive)
U-251
  GI50: 16.3 µM (inactive)
UACC-257
  GI50: 22.1 µM (inactive)
UACC-62
  GI50: 30.2 µM (inactive)
UO-31
  GI50: 49.4 µM (inactive)
XF498
  GI50: 13.9 µM (inactive)

## N#Cc1ccc(C2SCc3nc4ccccc4n32)cc1 (stereo not given)
786-0
  GI50: > 100 µM (inactive)
A498
  GI50: 58.7 µM (inactive)
A549
  GI50: 81.8 µM (inactive)
ACHN
  GI50: 63.8 µM (inactive)
CAKI-1
  GI50: > 100 µM (inactive)
CCRF-CEM
  GI50: > 100 µM (inactive)
COLO 205
  GI50: > 100 µM (inactive)
DLD-1
  GI50: > 100 µM (inactive)
DMS-273
  GI50: > 100 µM (inactive)
EKVX
  GI50: 69.3 µM (inactive)
HCC 2998
  GI50: > 100 µM (inactive)
HCT-116
  GI50: 44.8 µM (inactive)
HCT-15
  GI50: > 100 µM
HL-60
  GI50: 31.3 µM (inactive)
HOP-18
  GI50: 48.5 µM (inactive)
HOP-62
  GI50: 98.6 µM (inactive)
IGROV-1
  GI50: 79.4 µM (inactive)
K562
  GI50: 41.6 µM (inactive)
KM-20L2
  GI50: 52.7 µM (inactive)
KM12
  GI50: > 100 µM (inactive)
LXFL 529
  GI50: 45.4 µM (inactive)
M14
  GI50: 54.2 µM (inactive)
M19-MEL
  GI50: > 100 µM (inactive)
MOLT-4
  GI50: 63.1 µM (inactive)
Malme-3M
  GI50: > 100 µM (inactive)
NCI-H23
  GI50: 25.6 µM (inactive)
NCI-H460
  GI50: > 100 µM (inactive)
NCI-H522
  GI50: 12.3 µM (inactive)
OVCAR-3
  GI50: > 100 µM (inactive)
OVCAR-4
  GI50: 83.2 µM (inactive)
OVCAR-8
  GI50: 76.9 µM (inactive)
RPMI-8226
  GI50: 49.8 µM (inactive)
RXF 393
  GI50: 10.5 µM (inactive)
SF-268
  GI50: > 100 µM (inactive)
SF-295
  GI50: 74.3 µM (inactive)
SF-539
  GI50: 84.7 µM (inactive)
SK-MEL-28
  GI50: 42.4 µM (inactive)
SK-MEL-2
  GI50: > 100 µM (inactive)
SK-MEL-5
  GI50: 32.7 µM (inactive)
SK-OV-3
  GI50: > 100 µM (inactive)
SN12C
  GI50: 75 µM (inactive)
SNB-19
  GI50: 81.7 µM (inactive)
SNB-75
  GI50: 38.5 µM (inactive)
SNB-78
  GI50: > 100 µM (inactive)
SW-620
  GI50: > 100 µM (inactive)
TK-10
  GI50: 81.7 µM (inactive)
U-251
  GI50: > 100 µM (inactive)
UACC-257
  GI50: > 100 µM (inactive)
UACC-62
  GI50: 50.7 µM (inactive)
UO-31
  GI50: 15.2 µM (inactive)
XF498
  GI50: > 100 µM (inactive)

## COc1ccccc1CCc1cc(OC)c(OC)c(OC)c1
786-0
  GI50: 74.3 µM (inactive)
A498
  GI50: 57.9 µM (inactive)
A549
  GI50: 41.1 µM (inactive)
ACHN
  GI50: 51.9 µM (inactive)
CAKI-1
  GI50: 57.8 µM (inactive)
CCRF-CEM
  GI50: 31.8 µM (inactive)
COLO 205
  GI50: 42.2 µM (inactive)
DLD-1
  GI50: 61.5 µM (inactive)
DMS-114
  GI50: 41.6 µM (inactive)
DMS-273
  GI50: 39.6 µM (inactive)
EKVX
  GI50: 49.3 µM (inactive)
HCT-116
  GI50: 37.1 µM (inactive)
HCT-15
  GI50: 36.1 µM
HL-60
  GI50: 11 µM (inactive)
HOP-18
  GI50: > 100 µM (inactive)
HOP-62
  GI50: > 100 µM (inactive)
HOP-92
  GI50: 26.8 µM (inactive)
HT-29
  GI50: 41.5 µM (inactive)
IGROV-1
  GI50: 49.9 µM (inactive)
K562
  GI50: 33 µM (inactive)
KM-20L2
  GI50: 55.8 µM (inactive)
KM12
  GI50: 38.5 µM (inactive)
LOX IMVI
  GI50: 40.3 µM (inactive)
LXFL 529
  GI50: 28.4 µM (inactive)
M14
  GI50: 47.6 µM (inactive)
M19-MEL
  GI50: 48.3 µM (inactive)
MOLT-4
  GI50: 23.9 µM (inactive)
Malme-3M
  GI50: 49.5 µM (inactive)
NCI-H226
  GI50: 39.8 µM (inactive)
NCI-H460
  GI50: 44.1 µM (inactive)
NCI-H522
  GI50: 26.8 µM (inactive)
OVCAR-3
  GI50: 41.3 µM (inactive)
OVCAR-4
  GI50: 40.6 µM (inactive)
OVCAR-5
  GI50: 1.56 µM (inactive)
OVCAR-8
  GI50: 45.9 µM (inactive)
RPMI-8226
  GI50: 20.2 µM (inactive)
RXF 393
  GI50: 20.9 µM (inactive)
SF-268
  GI50: 65.9 µM (inactive)
SF-295
  GI50: 51.4 µM (inactive)
SF-539
  GI50: 65.3 µM (inactive)
SK-MEL-28
  GI50: 65.6 µM (inactive)
SK-MEL-5
  GI50: 19.5 µM (inactive)
SN12C
  GI50: 61.9 µM (inactive)
SNB-19
  GI50: 75.9 µM (inactive)
SNB-75
  GI50: 41.6 µM (inactive)
SNB-78
  GI50: 43 µM (inactive)
SW-620
  GI50: 47.5 µM (inactive)
TK-10
  GI50: 76.7 µM (inactive)
U-251
  GI50: 40.4 µM (inactive)
UACC-257
  GI50: 45 µM (inactive)
UACC-62
  GI50: 65 µM (inactive)
UO-31
  GI50: 22.9 µM (inactive)
XF498
  GI50: 35.9 µM (inactive)
